Results reported in patent publication US8937065B2, “Compositions and methods for modulating a kinase” (Clevexel Pharma, priority 2011, dated 2015).

Assays:
[1] = biological target: T1, JAK3 (Homo sapiens, UniProt P52333); test: JAK3 enzymatic activity assay (Z'-LYTE Biochemical Kinase Assay, 2 hr preincubation at 4° C.); conditions: cell-free
T1 construct: purchased Invitrogen, Madison, Wis
T1 sequence (P52333 1-1124): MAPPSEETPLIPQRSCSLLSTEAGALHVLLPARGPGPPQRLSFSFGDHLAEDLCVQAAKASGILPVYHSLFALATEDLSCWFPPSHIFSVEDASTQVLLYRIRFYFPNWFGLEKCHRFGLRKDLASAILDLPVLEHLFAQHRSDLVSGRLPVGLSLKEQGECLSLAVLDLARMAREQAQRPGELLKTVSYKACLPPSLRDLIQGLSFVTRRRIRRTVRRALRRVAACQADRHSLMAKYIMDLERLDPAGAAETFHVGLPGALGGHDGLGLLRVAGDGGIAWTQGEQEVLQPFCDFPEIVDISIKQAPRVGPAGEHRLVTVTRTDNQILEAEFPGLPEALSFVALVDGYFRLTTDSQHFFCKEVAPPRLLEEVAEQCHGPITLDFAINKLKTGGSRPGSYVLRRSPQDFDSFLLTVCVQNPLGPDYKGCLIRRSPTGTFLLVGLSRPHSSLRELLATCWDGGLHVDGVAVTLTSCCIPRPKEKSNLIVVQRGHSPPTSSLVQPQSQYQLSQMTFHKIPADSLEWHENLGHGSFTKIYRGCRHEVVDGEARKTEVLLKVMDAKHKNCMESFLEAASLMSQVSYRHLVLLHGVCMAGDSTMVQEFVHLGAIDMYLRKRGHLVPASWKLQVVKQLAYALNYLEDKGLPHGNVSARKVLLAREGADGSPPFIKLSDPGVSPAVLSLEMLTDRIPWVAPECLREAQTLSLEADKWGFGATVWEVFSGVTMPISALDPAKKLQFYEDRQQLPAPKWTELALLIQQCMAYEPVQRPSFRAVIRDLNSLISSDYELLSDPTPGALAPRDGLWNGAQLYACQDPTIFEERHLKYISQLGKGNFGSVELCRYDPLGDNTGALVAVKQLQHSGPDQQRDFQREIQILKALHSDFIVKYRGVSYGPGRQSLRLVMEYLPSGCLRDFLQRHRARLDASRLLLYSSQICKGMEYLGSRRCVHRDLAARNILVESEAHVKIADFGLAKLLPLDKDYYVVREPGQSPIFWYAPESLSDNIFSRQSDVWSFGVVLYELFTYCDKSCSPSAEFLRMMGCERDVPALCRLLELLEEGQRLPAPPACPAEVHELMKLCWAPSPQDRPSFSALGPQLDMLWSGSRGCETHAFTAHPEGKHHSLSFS

[2] = system: JAK2 pathway, TF-1 cells; test: JAK2/STAT5-irf1-bla TF1 screen; conditions: Homo sapiens, read-out: IC50 Cell-based selectivity: JAK2 pathway TF-1 cells
Protocol: Mechanism-based inhibition assays using compound 7A (Table 1) were performed using GeneBLAzer® Technology (Invitrogen Corporation), according to manufacturer specifications. Briefly, GeneBLAzer® Technology uses a mammalian-optimized Beta-lactamase reporter gene (bla) combined with a FRET-enabled substrate to provide reliable and sensitive detection in intact cells. Cells were loaded with an engineered fluorescent substrate containing two fluorophores, coumarin and fluorescein. Without bla expression, the substrate molecule remains intact. In this state, excitation of the coumarin results in fluorescence resonance energy transfer to the fluorescein moiety and emission of green light. But when bla is expressed, the substrate is cleaved, the fluorophores are separated, and energy transfer is disrupted. Excitation of the coumarin in the presence of Beta-lactamase activity results in a blue fluorescence signal. […]
General Activator Assay Protocol • 1. […] The assay, plate was read on a fluorescence plate reader (Tecan Safire^2) and the data is analyzed.
irf1-bla TF1 cells were thawed and resuspended in Assay Media (OPTI-MEM, 0.5% dialyzed FBS, 0.1 mM NEAA, 1 mM Sodium Pyruvate, 100 U/mL/100 μg/mL Pen/Strep) to a concentration of 1,562,500 cells/mL. […] The plate is read on a fluorescence plate reader.

[3] = system: RS4; 11 cells; test: Proliferation of RS4; 11 cells (Cell Titer-Glo); conditions: Homo sapiens, B cells, outcome-based, read-out: IC50 Proliferation RS4, 11 cells (ALL)
Protocol: Growth inhibitory activity against the human tumor cell lines, RS4; 11 and Daudi was determined using Promega's Cell Titer-Glo® assay. The human tumor cells were placed in a 96-well microculture plate (Costar white, flat bottom #3917) in a total volume of 90 μL/well. After 24 hours of incubation in a humidified incubator at 37° C. with 5% CO2 and 95% air, […] serially diluted test agents in growth medium were added to each well. After 96 total hours of culture in a CO2 incubator, the plated cells and Cell Titer-Glo® (Promega # G7571) reagents were brought to room temperature to equilibrate for 30 minutes. 100 μL of Cell Titer-Glo® reagent was added to each well. The plate was shaken for 2 minutes and then left to equilibrate for 10 minutes before reading luminescence on the Tecan GENios microplate reader.
Percent inhibition of cell growth was calculated relative to untreated control wells. All tests were performed in duplicate at each concentration level. The IC50 value for the test agents was estimated using Prism 3.03 by curve-fitting the data using the following four parameter-logistic equation: […]

Question: For `O=C(CN1CCOCC1)Nc1cccc(-c2nc(-c3c[nH]c(C(=O)N4CCCC4)c3)cs2)c1` [7A, 2-morpholino-N-(3-(4-(5-(pyrrolidine-1-carbonyl)-1H-pyrrol-3-yl)thiazol-2-yl)phenyl)acetamide], which Ki [1] is on record?
Answer: 0.795 µM

Question: And the IC50 [2]?
Answer: 49500 nM

Question: And the IC50 [3]?
Answer: 500 nM
